The subject of experiment [1] is Intracellular cAMP levels. Description: Measurement of intracellular cAMP levels in differentiated L6 cells. Particulars: compound 1×10^−5 M, 15 min; for Emax at 10 µM: Rattus norvegicus, L6, 0.25 h, read-out: Biological example 2: intracellular cAMP levels, activity compared to that of isoproterenol. It is filed as cell-based. Here is the method:
(§1) L6-myoblasts were grown in Dulbecco's Modified Eagle's Medium (DMEM) containing 1 g/L glucose supplemented with 10% fetal bovine serum, 2 mM L-Glutamine, 50 U/mL penicillin, 50 μg/mL streptomycin and 10 mM HEPES. Cells were plated at 1×10^5 cells per mL in 24-well plates. After reaching 90% confluence the cells were grown in medium containing 2% FBS for 7 days where upon cells differentiated into myotubes.
Differentiated cells were serum-starved overnight and stimulated with an agonist, final concentration 1×10^−5 M, for 15 min in stimulation buffer (HBSS supplemented with 1% BSA, 5 mM HEPES and 1 mM IBMX, pH 7.4). The medium was aspirated and 100 μL of 95% EtOH was added to each well of the 24-well plate and cells were kept at −20° C. overnight. The EtOH was allowed to evaporate and 500 μL of lysis buffer (1% BSA, 5 mM HEPES and 0.3% Tween-20, pH 7.4) was added to each well. The plate was kept at −80° C. for 30 min and then at −20° C. until the day of detection when the samples were thawed. Intracellular cAMP levels were detected using an alpha screen cAMP kit (6760635D from Perkin Elmer). The activity for each compound is compared to that of isoproterenol.
On the technique in general: cAMP levels reflect the balance of adenylyl cyclase and phosphodiesterase activity.

The test system of the next experiment is L6-myotubes. Description: Glucose uptake (3H-2-deoxyglucose) in differentiated L6-myotubes. It is filed as cell-based. The following applies: compound 1×10^−5 M; for Emax at 10 µM: read-out: Biological example 1: glucose uptake, activity compared to that of isoproterenol. Here is the method:
as §1
Differentiated L6-myotubes were serum-starved overnight in medium containing 0.5% fatty-acid free BSA and stimulated with an agonist, with a final concentration of 1×10^−5 M. After 1 h 40 min the cells were washed with warm glucose free medium or PBS twice and another portion of agonist was added to the glucose free medium. After 20 min the cells were exposed to 50 nM ^3H-2-deoxyglucose for 10 min before washed with ice cold glucose free medium or PBS three times and lysed with 0.2 M NaOH, 400 μL/well, for 1 h at 60° C. The cell lysate was mixed with 4 mL scintillation buffer (Emulsifier Safe, Perkin Elmer) and the radioactivity was detected in a β-counter (Tri-Carb 4810TR, Perkin Elmer). The activity for each compound is compared to that of isoproterenol.

Where a name gives a salt, the structure may show the parent alone.

Regarding `CO[C@H]1CC[C@H](C[C@H]2CC[C@H]([C@@H](O)c3cccc(F)c3)N2)CC1.Cl` [Example 4, (S)-(3-Fluorophenyl)((2R,5R)-5-(((1r,4R)-4-methoxycyclohexyl)-methyl) -pyrrolidin-2-yl)methanol hydrochloride], in experiment [1], the “Biological example 2: intracellular cAMP levels, activity compared to that of isoproterenol” value is “− (less than 25%)”. For the same compound, the “Biological example 1: glucose uptake, activity compared to that of isoproterenol” value with L6-myotubes was “+ (between 50 and 25%)”.

For the compound `CO[C@H]1CC[C@H](C[C@@H]2CC[C@H]([C@H](O)c3ccccc3F)N2)CC1.Cl` [Example 5, (R)-(2-Fluorophenyl)((2R,5S)-5-(((1r,4S)-4-methoxycyclohexyl)methyl-(pyrrolidin-2-yl)methanol hydrochloride], the figures for the Emax at 10 µM (in experiment [1]; in the experiment on L6-myotubes) were less than 25% and more than 75%, respectively.

Regarding `CO[C@H]1CC[C@H](C[C@@H]2CC[C@H]([C@@H](O)c3ccccc3F)N2)CC1` [Example 6, (S)-(2-Fluorophenyl)((2R,5S)-5-(((1r,4S)-4-methoxycyclohexyl)methyl) -pyrrolidin-2-yl)methanol hydrochloride], the Emax at 10 µM in experiment [1] was less than 25%; with L6-myotubes it was 25 to 50%.

Take `CO[C@H]1CC[C@H](C[C@H]2CC[C@H]([C@@H](O)c3ccccc3F)N2)CC1` [Example 8, (S)-(2-Fluorophenyl)((2R,5R)-5-(((1r,4S)-4-methoxycyclohexyl)methyl) -pyrrolidin-2-yl)methanol hydrochloride]: the Emax at 10 µM in experiment [1] is less than 25%; in the experiment on L6-myotubes, 50 to 75%.

With `CO[C@H]1CC[C@H](C[C@@H]2CC[C@H]([C@H](O)c3cncc(F)c3)N2)CC1` [Example 9, (R)-(5-Fluoropyridin-3-yl)(2R,5S)-5-(((1r,4S)-4-methoxycyclohexyl)methyl) -pyrrolidin-2-yl)methanol dihydrochloride], the results for the Emax at 10 µM (in experiment [1]; in the experiment on L6-myotubes) were less than 25% and 25 to 50%, respectively.

As to `CO[C@H]1CC[C@H](C[C@@H]2CC[C@H]([C@@H](O)c3cncc(F)c3)N2)CC1` [Example 10, (S)-(5-Fluoropyridin-3-yl)((2R,5S)-5-(((1r,4S)-4-methoxycyclohexyl) -methyl)pyrrolidin-2-yl)methanol dihydrochloride], the Emax at 10 µM in experiment [1] is less than 25%; in the experiment on L6-myotubes, 25 to 50%.

`CO[C@H]1CC[C@H](C[C@H]2CC[C@H]([C@H](O)c3cncc(F)c3)N2)CC1` [Example 11, (R)-(5-Fluoropyridin-3-yl)((2R,5R)-5-(((1r,4S)-4-methoxycyclohexyl) -methyl)pyrrolidin-2-yl)methanol dihydrochloride]: the Emax at 10 µM in experiment [1] is less than 25%; in the experiment on L6-myotubes, more than 75%.

In the case of `CO[C@H]1CC[C@H](C[C@H]2CC[C@H]([C@@H](O)c3cncc(F)c3)N2)CC1` [Example 12, (S)-(5-Fluoropyridin-3-yl)(2R,5R)-5-(((1r,4S)-4-methoxycyclohexyl) -methyl)pyrrolidin-2-yl)methanol dihydrochloride], the Emax at 10 µM was less than 25% in experiment [1] and 25 to 50% in the experiment on L6-myotubes.

`COc1ccc(C[C@@H]2CC[C@H]([C@H](O)c3cccc(F)c3)N2)cc1` [Example 13, (R)-(3-Fluorophenyl)((2R,5S)-5-(4-methoxybenzyl)pyrrolidin-2-yl)methanol]: the Emax at 10 µM in experiment [1] is less than 25%; in the experiment with L6-myotubes it was more than 75%.

On to `COc1ccc(C[C@@H]2CC[C@H]([C@@H](O)c3cccc(F)c3)N2)cc1` [Example 14, (S)-(3-Fluorophenyl)((2R,5S)-5-(4-methoxybenzyl)pyrrolidin-2-yl)methanol hydrochloride], for which the Emax at 10 µM is less than 25% in experiment [1] and more than 75% with L6-myotubes.

For the compound `COc1ccc(C[C@H]2CC[C@H]([C@H](O)c3cccc(F)c3)N2)cc1` [Example 15, (R)-(3-Fluorophenyl)((2R,5R)-5-(4-methoxybenzyl)pyrrolidin-2-yl)methanol], the Emax at 10 µM in experiment [1] was less than 25%; in the experiment with L6-myotubes, more than 75%.

Take `COc1ccc(C[C@H]2CC[C@H]([C@@H](O)c3cccc(F)c3)N2)cc1` [Example 16, (S)-(3-Fluorophenyl)((2R,5R)-5-(4-methoxybenzyl)pyrrolidin-2-yl)methanol]: the figures for the Emax at 10 µM (in experiment [1]; in the experiment with L6-myotubes) were less than 25% and 50 to 75%, respectively.

With `CO[C@H]1CC[C@H](C[C@@]2(C)CC[C@H]([C@H](O)c3cccc(F)c3)N2)CC1` [Example 17, (R)-(3-Fluorophenyl)((2R,5R)-5-(((1r,4R)-4-methoxycyclohexyl)methyl)-5-methylpyrrolidin-2-yl)methanol], the Emax at 10 µM in experiment [1] was 25 to 50%; in the experiment on L6-myotubes, more than 75%.

Turning to `CO[C@H]1CC[C@H](C[C@@]2(C)CC[C@H]([C@@H](O)c3cccc(F)c3)N2)CC1` [Example 18, (S)-(3-Fluorophenyl)(2R,5R)-5-(((1r,4R)-4-methoxycyclohexyl)methyl)-5-methylpyrrolidin-2-yl)methanol hydrochloride], the Emax at 10 µM was less than 25% in experiment [1] and 50 to 75% in the experiment with L6-myotubes.

As for `COc1ccc(C[C@@]2(C)CC[C@H]([C@H](O)c3cccc(F)c3)N2)cc1` [Example 19, (R)-(3-Fluorophenyl)((2R,5R)-5-(4-methoxybenzyl)-5-methylpyrrolidin-2-yl)methanol hydrochloride], the values for the Emax at 10 µM (in experiment [1]; with L6-myotubes) were 25 to 50% and more than 75%, respectively.

On to `COc1ccc(C[C@@]2(C)CC[C@H]([C@@H](O)c3cccc(F)c3)N2)cc1` [Example 20, (S)-(3-Fluorophenyl)((2R,5R)-5-(4-methoxybenzyl)-5-methylpyrrolidin-2-yl)methanol hydrochloride], for which the Emax at 10 µM in experiment [1] was less than 25%; in the experiment on L6-myotubes, more than 75%.

Take `COc1ccc(C[C@@H]2CC[C@H]([C@H](O)c3cncc(F)c3)N2)cc1` [Example 21, (R)-(5-Fluoropyridin-3-yl)((2R,5S)-5-(4-methoxybenzyl)pyrrolidin-2-yl) -methanol dihydrochloride]: the Emax at 10 µM in experiment [1] is less than 25%; with L6-myotubes it was more than 75%.

Take `COc1ccc(C[C@@H]2CC[C@H]([C@@H](O)c3cncc(F)c3)N2)cc1` [Example 22, (S)-(5-Fluoropyridin-3-yl)((2R,5S)-5-(4-methoxybenzyl)pyrrolidin-2-yl)methanol dihydrochloride]: the Emax at 10 µM is less than 25% in experiment [1] and more than 75% in the experiment with L6-myotubes.

In the case of `COc1ccc(C[C@H]2CC[C@H]([C@H](O)c3cncc(F)c3)N2)cc1` [Example 23, (R)-(5-Fluoropyridin-3-yl)(2R,5R)-5-(4-methoxybenzyl)pyrrolidin-2-yl)methanol dihydrochloride], the results for the Emax at 10 µM (in experiment [1]; with L6-myotubes) were less than 25% and more than 75%, respectively.

On to `COc1ccc(C[C@H]2CC[C@H]([C@@H](O)c3cncc(F)c3)N2)cc1` [Example 24, (S)-(5-Fluoropyridin-3-yl)((2R,5R)-5-(4-methoxybenzyl)pyrrolidin-2-yl)methanol dihydrochloride], for which the Emax at 10 µM in experiment [1] is less than 25%; with L6-myotubes, more than 75%.

On to `O[C@H](c1cccc(F)c1)[C@H]1CC[C@@H](Cc2ccc(Cl)cc2)N1` [Example 25, (R)-((2R,5S)-5-(4-Chlorobenzyl)pyrrolidin-2-yl)(3-fluorophenyl)methanol hydrochloride], for which the Emax at 10 µM is less than 25% in experiment [1] and more than 75% with L6-myotubes.

The values above are taken from patent US20240391871A1, “SUBSTITUTED HYDROXYMETHYL PYRROLIDINES AND MEDICAL USES THEREOF” (ATROGI AB, priority 2021, published 2024).
